Experimental data as given in patent US20220226343A1, “3-AMINO-4-[4-[4 (DIMETHYLCARBAMOYL) PHENYL]-1,4-DIAZEPAN-1-YL]THIENO[2,3-B]PYRIDINE-2-CARBOXAMIDE FOR USE IN CANCER THERAPY AND FORMULATIONS COMPRISING THE SAME” (University of South Carolina, priority 2019, published 2022).

Tests used:
[1] = Oral PK of 15u and 15u_D6, female CD-1 mice; conditions: 30 mg/kg, AUC within the first eight hours
[2] = target: T1, PFPK5(P. falciparum) (Plasmodium falciparum, UniProt P61075); assay: KINOMEscan scanMAX; assay type: binding; conditions: 2000 nM
T1 construct: purchased KINOMEscan (DiscoveRx) scanMAX panel
From the text: (§1) Nat. Biotechnol. 23, 329-336 (2005).
(§2) Percent Control (% Ctrl).
(§3) % Ctrl=100×(TS−CPOS)/(CNEG−CPOS) (eqn 1)

[3] = target: T2, PKNB(M. tuberculosis) (Mycobacterium tuberculosis, UniProt P9WI81); assay: KINOMEscan scanMAX; assay type: binding; conditions: 2000 nM
T2 construct: purchased DiscoveRx (KINOMEscan scanMAX panel)
From the text: as §1, §2, §3

[4] = target: T3, PRP4 (Homo sapiens, UniProt Q13523); assay: KINOMEscan scanMAX; assay type: binding; conditions: PRP4, 2000 nM
T3 construct: DNA label (qPCR read-out); purchased DiscoverX (KINOMEscan)
From the text: as §1, §2, §3

[5] = target: T4, PFCDPK1(P. falciparum) (Plasmodium falciparum, UniProt P62344); assay: KINOMEscan scanMAX; assay type: binding; conditions: 2000 nM
T4 construct: DNA label (qPCR read-out); purchased DiscoveRx (KINOMEscan scanMAX)
From the text: as §1, §2, §3

[6] = tested on: FLT3(ITD, F691L); assay: KINOMEscan scanMAX; assay type: binding; conditions: 2000 nM
From the text: as §1, §2, §3

[7] = target: T5, CDC2L5 (Homo sapiens, UniProt Q14004); assay: KINOMEscan scanMAX; assay type: binding; conditions: CDC2L5, 2000 nM
T5 construct: purchased DiscoverX (KINOMEscan scanMAX service)
From the text: as §1, §2, §3

[8] = tested on: FLT3(ITD); assay: KINOMEscan scanMAX; assay type: binding; conditions: 2000 nM
From the text: as §1, §2, §3

[9] = tested on: FLT3(ITD, D835V); assay: KINOMEscan scanMAX; assay type: binding; conditions: 2000 nM
From the text: as §1, §2, §3

[10] = in vivo; conditions: female, CD-1, mouse, serum, po, 30 mg/kg
[11] = tested on: CDK8/19; assay: NFκB reporter assay in parental 293 reporter cells; assay type: cell-based; conditions: NFκB Activity Assay as described in Example 1; read-out: Inhibition Potency HEK293-NFkB-Luc Assay
From the text: We have used a cell-based assay to measure the inhibition of CDK8/19 activity by thienopyridine derivatives. This assay, based on the role of CDK8/19 in NFκB-driven transcription (Chen, 2017), measures the effects of CDK8/19 on the expression of firefly luciferase reporter from a NFκB-dependent promoter in 293 cells. Lentiviral vector pHAGE-NFKB-TA-LUC-UBC-dTomato-W (Addgene #49335) was introduced into 293 cells and a clonal cell line showing the strongest induction of luciferase expression upon TNFα treatment was established and used as the reporter cell line. As a control for CDK8/19 dependence of NFκB inhibition, we have also introduced the same reporter construct into 293 cells with CRISPR/CAS9 knockout of both CDK8 and CDK19.
FIG. 2C and Table 1 compares the IC50 values for different thienopyridines measured in the NFκB reporter assay in parental 293-derived reporter cell line to the cell-based activity values measured for the same compounds by Saito (2013) based on their effect on alkaline phosphatase (ALPase), an indicator of differentiation to osteoblasts in the mouse bone marrow stromal cell line ST2. The latter effects are expressed as EC200, a concentration that enhances ALPase activity to 200% of control.

[12] = tested on: PSA expression in CRPC cell line C4-2; assay: PSA expression in cell culture supernatant of C4-2 cells; assay type: cell-based; conditions: C4-2 culture supernatant, 4-day treatment, FBS-supplemented regular media
From the text: CDK8/19 inhibition decreases the expression of certain androgen-receptor (AR) inducible genes including PSA, the most common marker of prostate cancer, and the growth of castration-refractory prostate cancers (CRPC).

[13] = tested on: MYC-CAP-CR cells; assay: Long-term clonogenic assay, MYC-CaP-CR; assay type: cell-based, murine; conditions: 1 μM Senexin B, 1 μM 15u, 5 μM enzalutamide
From the text: (§4) MYC-CaP-CR cells (Ellis L. et al., 2012. Prostate 72(6):587-591) were selected for castration resistance from genetically engineered MYC-CaP cells that express MYC from an AR-responsive promoter (Watson P A, et al., 2005. Cancer Res 65(24):11565-11571). Castration resistance in these cells is associated with the overexpression of full-length AR rather than an AR variant, such as AR-V7 in 22rv1 (Olson B M, et al., 2017. Cancer immunology research 5(12):1074-1085).

[14] = tested on: CRPC cell line 22rv1 xenograft; conditions: Senexin B 133 mg/kg once a day or 66 mg/kg twice a day (FIG. 8D)
[15] = tested on: 4T1 murine TNBC lung metastasis; assay: 4T1 breast cancer metastasis survival after primary tumor removal; assay type: in vivo, mouse; conditions: Senexin B medicated food (350 ppm) plus one oral dose 50 mg/kg
Procedure: 4T1 is a murine triple-negative breast cancer (TNBC) cell line, which is highly metastatic to the lungs. […] Parental and CDK8-knockdown 4T1 cells (n=10) were injected orthotopically in the mammary fat pad and the primary tumors were removed 17 days later. Following surgery, all the mice eventually died with lung metastases. […] However, the loss of CDK8 was associated with a strong increase in the survival of mice (FIG. 10C). […]

[16] = tested on: MYC-CAP-CR cells; assay: Short-term cell proliferation assay, MYC-CAP-CR; assay type: cell-based, murine; conditions: androgen-containing media
From the text: as §4

[17] = tested on: MYC-CaP-CR tumors; assay: MYC-CaP-CR tumors subcutaneous in intact FVB male mice; assay type: in vivo, mouse
From the text: as §4

T4 sequence (P62344 whole entry): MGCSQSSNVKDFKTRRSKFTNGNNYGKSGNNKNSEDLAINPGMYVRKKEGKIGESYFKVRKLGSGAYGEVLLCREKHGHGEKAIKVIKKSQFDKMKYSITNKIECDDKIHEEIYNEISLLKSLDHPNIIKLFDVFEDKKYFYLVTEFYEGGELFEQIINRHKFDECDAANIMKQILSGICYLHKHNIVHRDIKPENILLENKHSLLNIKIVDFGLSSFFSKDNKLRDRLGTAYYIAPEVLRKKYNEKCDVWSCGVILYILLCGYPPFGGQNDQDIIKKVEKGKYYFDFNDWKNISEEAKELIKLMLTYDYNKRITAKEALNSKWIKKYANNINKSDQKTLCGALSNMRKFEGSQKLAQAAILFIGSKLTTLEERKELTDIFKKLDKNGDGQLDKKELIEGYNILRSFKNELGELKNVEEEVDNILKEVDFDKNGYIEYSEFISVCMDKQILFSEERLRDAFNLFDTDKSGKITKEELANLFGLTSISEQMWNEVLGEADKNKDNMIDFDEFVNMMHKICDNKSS
T3 sequence (Q13523 whole entry): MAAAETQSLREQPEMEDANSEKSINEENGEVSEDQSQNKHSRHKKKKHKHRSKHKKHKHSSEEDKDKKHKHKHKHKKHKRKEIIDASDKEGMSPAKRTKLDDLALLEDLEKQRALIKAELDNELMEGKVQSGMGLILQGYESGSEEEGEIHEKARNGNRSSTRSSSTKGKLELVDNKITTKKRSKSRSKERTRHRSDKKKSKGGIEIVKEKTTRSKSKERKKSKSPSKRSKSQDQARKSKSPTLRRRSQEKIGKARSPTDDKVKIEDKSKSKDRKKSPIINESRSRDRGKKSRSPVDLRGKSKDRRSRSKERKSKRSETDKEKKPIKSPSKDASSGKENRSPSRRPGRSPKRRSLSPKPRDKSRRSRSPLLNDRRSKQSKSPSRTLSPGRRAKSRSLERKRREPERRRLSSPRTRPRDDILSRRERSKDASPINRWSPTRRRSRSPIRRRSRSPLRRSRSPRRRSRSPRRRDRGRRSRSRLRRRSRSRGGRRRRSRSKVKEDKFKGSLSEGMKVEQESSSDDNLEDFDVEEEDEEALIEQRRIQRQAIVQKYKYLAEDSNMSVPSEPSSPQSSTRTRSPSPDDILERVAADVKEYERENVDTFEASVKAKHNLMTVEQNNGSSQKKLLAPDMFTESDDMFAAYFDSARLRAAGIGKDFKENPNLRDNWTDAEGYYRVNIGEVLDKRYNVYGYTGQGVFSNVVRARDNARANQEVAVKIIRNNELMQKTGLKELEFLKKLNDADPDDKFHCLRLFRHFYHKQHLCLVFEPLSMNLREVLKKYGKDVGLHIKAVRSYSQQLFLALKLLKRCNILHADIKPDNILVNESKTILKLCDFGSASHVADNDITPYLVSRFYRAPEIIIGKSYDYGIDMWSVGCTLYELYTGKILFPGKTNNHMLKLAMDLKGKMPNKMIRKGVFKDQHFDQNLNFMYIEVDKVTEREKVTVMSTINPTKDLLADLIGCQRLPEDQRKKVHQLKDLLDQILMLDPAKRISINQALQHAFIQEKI
T5 sequence (Q14004 whole entry): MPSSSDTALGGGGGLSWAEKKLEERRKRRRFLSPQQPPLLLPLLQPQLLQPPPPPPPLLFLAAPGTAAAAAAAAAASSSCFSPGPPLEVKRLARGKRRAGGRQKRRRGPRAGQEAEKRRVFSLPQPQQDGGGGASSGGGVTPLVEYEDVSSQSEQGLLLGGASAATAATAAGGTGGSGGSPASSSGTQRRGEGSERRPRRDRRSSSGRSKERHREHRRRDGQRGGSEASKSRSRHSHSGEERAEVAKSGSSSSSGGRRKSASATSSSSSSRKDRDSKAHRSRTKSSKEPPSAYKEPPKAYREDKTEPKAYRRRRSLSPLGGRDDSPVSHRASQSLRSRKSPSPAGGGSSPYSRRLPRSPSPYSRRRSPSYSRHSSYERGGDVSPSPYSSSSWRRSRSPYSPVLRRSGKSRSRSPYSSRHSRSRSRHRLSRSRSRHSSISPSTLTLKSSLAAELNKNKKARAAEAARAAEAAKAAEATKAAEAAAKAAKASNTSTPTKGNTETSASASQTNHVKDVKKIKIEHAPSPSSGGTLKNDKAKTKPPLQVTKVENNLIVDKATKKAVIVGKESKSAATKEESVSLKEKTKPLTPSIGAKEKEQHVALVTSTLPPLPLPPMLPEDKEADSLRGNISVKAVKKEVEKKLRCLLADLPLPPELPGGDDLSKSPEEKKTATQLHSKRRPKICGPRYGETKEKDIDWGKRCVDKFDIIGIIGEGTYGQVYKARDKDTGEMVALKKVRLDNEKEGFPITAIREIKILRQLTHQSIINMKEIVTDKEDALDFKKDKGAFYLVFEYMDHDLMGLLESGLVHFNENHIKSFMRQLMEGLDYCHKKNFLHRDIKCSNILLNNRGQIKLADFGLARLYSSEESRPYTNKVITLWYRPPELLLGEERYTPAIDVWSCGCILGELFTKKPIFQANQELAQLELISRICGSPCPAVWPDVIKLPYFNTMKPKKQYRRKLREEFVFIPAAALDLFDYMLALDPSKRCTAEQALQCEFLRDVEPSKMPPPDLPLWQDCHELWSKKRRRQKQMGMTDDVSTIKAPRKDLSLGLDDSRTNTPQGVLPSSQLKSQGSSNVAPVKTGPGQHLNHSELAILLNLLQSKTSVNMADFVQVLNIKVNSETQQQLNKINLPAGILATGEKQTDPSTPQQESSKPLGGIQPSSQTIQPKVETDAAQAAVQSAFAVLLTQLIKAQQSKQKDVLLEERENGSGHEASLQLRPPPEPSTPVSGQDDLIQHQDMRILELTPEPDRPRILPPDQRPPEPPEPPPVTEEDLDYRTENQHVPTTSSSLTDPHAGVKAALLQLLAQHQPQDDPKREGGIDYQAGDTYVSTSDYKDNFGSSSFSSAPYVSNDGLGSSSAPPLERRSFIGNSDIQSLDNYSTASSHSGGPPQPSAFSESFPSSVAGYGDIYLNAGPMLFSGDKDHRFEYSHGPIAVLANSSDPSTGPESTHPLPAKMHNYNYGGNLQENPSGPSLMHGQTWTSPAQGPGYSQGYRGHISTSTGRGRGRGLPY
T2 sequence (P9WI81 whole entry): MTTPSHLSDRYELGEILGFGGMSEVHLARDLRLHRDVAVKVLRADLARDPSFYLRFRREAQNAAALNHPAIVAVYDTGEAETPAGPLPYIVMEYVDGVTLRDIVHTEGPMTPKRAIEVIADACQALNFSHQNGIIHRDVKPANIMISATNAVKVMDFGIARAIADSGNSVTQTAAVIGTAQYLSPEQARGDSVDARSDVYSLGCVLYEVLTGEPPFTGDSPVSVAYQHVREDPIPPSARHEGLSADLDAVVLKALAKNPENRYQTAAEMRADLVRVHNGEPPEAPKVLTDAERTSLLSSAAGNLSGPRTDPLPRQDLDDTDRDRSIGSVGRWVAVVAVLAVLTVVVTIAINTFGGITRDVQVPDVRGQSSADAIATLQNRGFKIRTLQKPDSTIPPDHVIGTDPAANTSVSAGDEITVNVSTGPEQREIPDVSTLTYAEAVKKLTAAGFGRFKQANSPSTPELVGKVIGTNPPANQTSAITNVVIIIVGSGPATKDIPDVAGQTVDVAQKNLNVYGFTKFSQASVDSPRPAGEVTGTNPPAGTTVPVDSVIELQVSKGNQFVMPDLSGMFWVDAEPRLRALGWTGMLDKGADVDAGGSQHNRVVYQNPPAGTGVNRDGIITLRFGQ
T1 sequence (P61075 whole entry): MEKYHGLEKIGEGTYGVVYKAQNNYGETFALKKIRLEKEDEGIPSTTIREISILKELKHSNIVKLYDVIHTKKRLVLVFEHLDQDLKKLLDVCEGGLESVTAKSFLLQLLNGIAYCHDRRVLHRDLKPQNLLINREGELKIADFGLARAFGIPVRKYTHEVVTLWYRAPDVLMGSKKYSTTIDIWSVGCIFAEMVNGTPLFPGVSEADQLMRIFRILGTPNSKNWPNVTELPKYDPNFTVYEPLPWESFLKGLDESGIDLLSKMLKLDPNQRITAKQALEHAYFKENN

| SMILES | PK of the D6 derivative compared with 15u [1] | % Ctrl [2] [% Ctrl] | % Ctrl [3] [% Ctrl] | % Ctrl [4] [% Ctrl] | % Ctrl [5] [% Ctrl] | % Ctrl [6] [% Ctrl] | % Ctrl [7] [% Ctrl] | % Ctrl [8] [% Ctrl] | % Ctrl [9] [% Ctrl] | AUC(0-t) [10] [ng·h/mL] | IC50 [11] [nM] | IC50 [12] [nM] | MYC-CaP-CR colony formation [13] | 22rv1 growth in castrated mice [14] | survival after removal of the primary 4T1 tumor [15] | MYC-CAP-CR cell growth [16] | MYC-CaP-CR tumor volume and weight [17] |
| --- | --- | --- | --- | --- | --- | --- | --- | --- | --- | --- | --- | --- | --- | --- | --- | --- | --- |
| [2H]C([2H])([2H])N(C(=O)c1ccc(N2CCCN(c3ccnc4sc(C(N)=O)c(N)c34)CC2)cc1)C([2H])([2H])[2H] [Compound 15u_D6, 3-amino-4-(4-(4-(bis(methyl-d3)carbamoyl)phenyl)-1,4-diazepan-1-yl)thieno[2,3-b]pyridine-2-carboxamide] | slightly improved the PK | 67 | 90 | 88 | 61 | 75 | 80 | 72 | 34 | 7400 | 7.7 |  |  |  |  |  |  |
| CN1CCN(C(=O)c2ccc3cc(CCNc4ncnc5ccc(C#N)cc45)ccc3c2)CC1 [Senexin B, reference compound] |  |  |  |  |  |  |  |  |  |  |  | 255 | decreased MYC-CaP-CR colony formation | significantly inhibited 22rv1 growth | statistically significant but moderate increase in survival | little effect |  |
| CNC(=O)c1ccc(N2C(=S)N(c3ccc(C#N)c(C(F)(F)F)c3)C(=O)C2(C)C)cc1F [enzalutamide] |  |  |  |  |  |  |  |  |  |  |  |  | decreased MYC-CaP-CR colony formation |  |  | paradoxically stimulated the growth | modest effect |
